Experimental data reported in patent US20020035100A1, “Alkyl ether modified polycyclic compounds having a terminal phenol and uses for protection of cells” (priority 2000, published 2002).
“Also recorded” adds a separate entry of the source.

What was measured:
HT-22 cells = experiment: Cytoprotection of HT-22 cells against glutamate exposure (calcein AM cell viability); type: cell-based, Mouse; details: for activity compared with 4c and 4e: at 10 μM; for cytoprotection (result in words): tested at 0.01-10 μM; for neuroprotection: at 10 μM and 1 μM
Description: Mouse clonal hippocampal HT-22 cells were cultured in DMEM media supplemented with 10% fetal bovine serum under standard cell culture conditions. All wells in the 96 well culture plate contained approximately 5,000 HT-22 cells as determined by a Neubauer hemacytometer and the cells were incubated for 24 hrs before the compounds were added. The estradiol derivatives were purified recrystallization or column chromatography and were free from (1) as determined by HPLC. All agents were dissolved in absolute ethanol and diluted, with the culture media, to a final concentration of 0.01 μM; 0.1 μM; 1.0 μM; and 10 μM in their respective wells. The cells were further incubated for 24 hrs before sodium glutamate in a solution of phosphate buffer was added. Cell viability was quantified 2 hrs later by the calcein AM assay (Green, P. S., E. J.Perez, T. Calloway and J. W. Simpkins: (2000), Journal of Neurocytology, Vol. 29, pp. 419-423) in a phosphate buffer solution.
ANOVA was used to determine the significance of differences among groups. Comparison between groups were done using the Tukey test. Ap<0.05 was considered significant.

ERα = target: T1, ERα (Homo sapiens, UniProt P03372); experiment: Estrogen receptor binding, displacement of radiolabeled 17β-estradiol; design: dose or concentration left out as unconfirmed; details: human cloned ERα, 17β-estradiol assigned 1; <0.01 = no evidence of binding
T1 sequence (P03372 1-595): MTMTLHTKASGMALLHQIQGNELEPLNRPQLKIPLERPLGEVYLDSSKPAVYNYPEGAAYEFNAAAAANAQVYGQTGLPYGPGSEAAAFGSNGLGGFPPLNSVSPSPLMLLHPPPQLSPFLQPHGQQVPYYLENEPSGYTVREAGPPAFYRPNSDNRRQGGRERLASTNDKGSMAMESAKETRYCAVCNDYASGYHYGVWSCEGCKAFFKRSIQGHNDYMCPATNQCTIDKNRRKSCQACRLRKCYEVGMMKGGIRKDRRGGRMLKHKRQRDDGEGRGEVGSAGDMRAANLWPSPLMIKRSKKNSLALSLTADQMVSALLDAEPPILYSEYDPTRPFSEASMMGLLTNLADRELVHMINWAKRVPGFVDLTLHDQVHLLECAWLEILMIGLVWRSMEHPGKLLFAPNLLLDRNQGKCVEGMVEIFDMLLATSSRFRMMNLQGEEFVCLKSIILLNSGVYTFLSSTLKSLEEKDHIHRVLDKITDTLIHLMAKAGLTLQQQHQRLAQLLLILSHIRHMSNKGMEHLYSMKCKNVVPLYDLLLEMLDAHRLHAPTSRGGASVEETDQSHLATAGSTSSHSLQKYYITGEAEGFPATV

ERβ = ERβ (Homo sapiens, UniProt Q92731); experiment: Estrogen receptor binding, displacement of radiolabeled 17β-estradiol; design: dose or concentration left out as unconfirmed; details: human cloned ERβ, 17β-estradiol assigned 1; <0.01 = no evidence of binding
ERβ, sequence (Q92731 whole entry): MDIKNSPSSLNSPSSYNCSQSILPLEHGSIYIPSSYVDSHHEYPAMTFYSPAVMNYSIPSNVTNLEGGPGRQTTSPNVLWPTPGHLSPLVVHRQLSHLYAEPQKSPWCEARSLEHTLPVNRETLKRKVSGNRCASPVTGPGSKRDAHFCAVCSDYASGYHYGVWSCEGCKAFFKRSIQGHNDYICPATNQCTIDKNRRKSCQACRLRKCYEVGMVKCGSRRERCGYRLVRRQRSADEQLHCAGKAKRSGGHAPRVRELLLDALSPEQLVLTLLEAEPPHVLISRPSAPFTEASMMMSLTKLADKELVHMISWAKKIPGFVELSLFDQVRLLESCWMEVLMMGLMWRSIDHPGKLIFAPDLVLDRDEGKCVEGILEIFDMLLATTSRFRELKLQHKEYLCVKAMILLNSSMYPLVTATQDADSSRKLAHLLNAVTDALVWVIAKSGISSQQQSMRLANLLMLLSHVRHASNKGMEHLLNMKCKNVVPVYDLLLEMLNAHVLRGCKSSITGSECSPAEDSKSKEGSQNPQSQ

SMILES: C[C@]12CC[C@@H]3c4ccc(O)cc4CC[C@H]3[C@@H]1CC[C@@H]2O [Compound 1, 17β-estradiol, reference compound]
- activity compared with 4c and 4e (HT-22 cells): less active then 4c and 4e
- cytoprotection (result in words) (HT-22 cells): effective only at 10 μM

SMILES: CO[C@H]1CC[C@H]2[C@@H]3CCc4cc(O)ccc4[C@H]3CC[C@]12C [Compound 4a, 17β-Methoxyestra-1,3,5(10)-trien-3-ol]
- activity compared with 4c and 4e (HT-22 cells): less active then 4c and 4e
- cytoprotection (result in words) (HT-22 cells): inactive; also recorded: ineffective even at 10 μM
- cytoprotection (result in words) (HT-22 cells; listed as 17β-methylestradiol): effective only at 10 μM

SMILES: CCO[C@H]1CC[C@H]2[C@@H]3CCc4cc(O)ccc4[C@H]3CC[C@]12C [Compound 4b, 17β-Ethoxyestra-1,3,5(10)-trien-3-ol]
- ERα BINDING (Relative to E2) (ERα): <0.01

SMILES: CCCO[C@H]1CC[C@H]2[C@@H]3CCc4cc(O)ccc4[C@H]3CC[C@]12C [Compound 4c, 17β-Propoxyestra-1,3,5(10)-trien-3-ol]
- ERα BINDING (Relative to E2) (ERα): <0.01

SMILES: CCCCO[C@H]1CC[C@H]2[C@@H]3CCc4cc(O)ccc4[C@H]3CC[C@]12C [Compound 4d, 17β-Butoxyestra-1,3,5(10)-trien-3-ol]
- melting point: 77 to 81 °C

SMILES: CCCCCCO[C@H]1CC[C@H]2[C@@H]3CCc4cc(O)ccc4[C@H]3CC[C@]12C [Compound 4e, 17β-Hexyloxyestra-1,3,5(10)-trien-3-ol]
- neuroprotection (HT-22 cells): neuroprotective to a similar extent
- cytoprotection (result in words) (HT-22 cells): active

SMILES: CCCCCCCCO[C@H]1CC[C@H]2[C@@H]3CCc4cc(O)ccc4[C@H]3CC[C@]12C [Compound 4f, 17β-Octyloxyestra-1,3,5(10)-trien-3-ol]
- ERα BINDING (Relative to E2) (ERα): <0.01
- neuroprotection (HT-22 cells): neuroprotective to a similar extent
- ERβ BINDING (Relative to E2) (ERβ): <0.01

SMILES: CCCCOc1ccc2c(c1)CC[C@@H]1[C@@H]2CC[C@]2(C)[C@@H](O)CC[C@@H]12 [Compound 5b, 3-Butoxyestra-1,3,5(10)-trien-17β-ol]
- cytoprotection (result in words) (HT-22 cells): ineffective
- melting point: 86 to 88 °C

SMILES: CCCCCCCCOc1ccc2c(c1)CC[C@@H]1[C@@H]2CC[C@]2(C)[C@@H](O)CC[C@@H]12 [Compound 5c, 3-Octyloxyestra-1,3,5(10)-trien-17β-ol]
- cytoprotection (result in words) (HT-22 cells): ineffective
- melting point: 64 to 66 °C
